In article PMC3059195 (Journal of medicinal chemistry, 2010):
Where two headings read alike, the source gives them in different places.

Tests used:
[1] = system: B6-Bcl-2 transgenic mice (B-cells overexpress human Bcl-2); test: B6-Bcl-2 transgenic mouse spleen weight study; settings: for tolerability / toxicity of treated mice: 60 μmol/kg i.p., single injection; for in vivo activity compared to 6a: dose of 60 μmol/kg (Figure 3A); for tolerability of treated mice: i.p. at 30 μmol/kg
primary CLL cells = test: Annexin-V apoptosis assay, primary CLL cells; type: cell-based, human; settings: one day Annexin-V apoptosis assay
[2] = system: B6-Bcl-2 transgenic mice (B-cells overexpress human Bcl-2); settings: ip, 60 umol/kg
Bcl-XL = Bcl-XL (Homo sapiens, UniProt Q07817); test: 2D [15N,1H]-HSQC binding to 15N-labeled Bcl-XL; settings: ligand/protein ratio of 1:1
Chain of Bcl-XL (Q07817 whole entry): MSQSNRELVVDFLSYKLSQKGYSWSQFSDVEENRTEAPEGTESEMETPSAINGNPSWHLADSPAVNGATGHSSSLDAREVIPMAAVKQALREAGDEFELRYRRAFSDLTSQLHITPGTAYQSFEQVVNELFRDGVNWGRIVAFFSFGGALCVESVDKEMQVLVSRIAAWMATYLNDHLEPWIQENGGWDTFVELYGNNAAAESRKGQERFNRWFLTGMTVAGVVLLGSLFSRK

PPC-1 xenograft tumors = settings: for tumor response compared with control group in first week: i.p. three times in first week at 50 mg/kg
[3] = In vitro plasma stability; type: in vitro ADME
GST–Bcl-XL ΔTM protein = GST–Bcl-XL ΔTM protein (Homo sapiens, UniProt Q07817); test: Fluorescence polarization assay; type: binding
Chain of GST–Bcl-XL ΔTM protein (Q07817 1-211 limits assumed, stated change not applied): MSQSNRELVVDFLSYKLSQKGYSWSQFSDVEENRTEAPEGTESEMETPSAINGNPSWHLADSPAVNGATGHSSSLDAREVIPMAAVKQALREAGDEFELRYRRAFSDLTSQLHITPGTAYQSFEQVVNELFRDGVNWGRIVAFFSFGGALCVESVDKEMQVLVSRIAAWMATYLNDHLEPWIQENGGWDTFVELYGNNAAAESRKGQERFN

BP3 cell line = test: Annexin V-FITC and propidium iodide apoptosis assay, BP3
[4] = administered orally; cited from earlier work

For CC1=C(C2=C(C)C(=O)c3c(cc(O)c(O)c3CCC3CCCCC3)C2=O)C(=O)c2cc(O)c(O)c(CCC3CCCCC3)c2C1=O [Compound 6d, 5,5′-bis(2-cyclohexylethyl)-6,6′,7,7′-tetrahydroxy-3,3′-dimethyl-2,2′-binaphthyl-1,1′,4,4′-tetraone], the “tolerability / toxicity of treated mice” value [1] was “no observed toxicity” and the “in vivo activity compared to 6a” value [1] was “superior”.
With CC1=C(C2=C(C)C(=O)c3c(cc(O)c(O)c3CC3CCCC3)C2=O)C(=O)c2cc(O)c(O)c(CC3CCCC3)c2C1=O [Compound 6c, 5,5′-bis(cyclopentylmethyl)-6,6′,7,7′-tetrahydroxy-3,3′-dimethyl-2,2′-binaphthyl-1,1′,4,4′-tetraone] the “LD50 primary CLL samples (Supplementary Figure 3A)” value (primary CLL cells) was 6.5 µM.
In the case of CC1=C(C2=C(C)C(=O)c3c(cc(O)c(O)c3CC(C)C)C2=O)C(=O)c2cc(O)c(O)c(CC(C)C)c2C1=O [Compound 6b, 6,6′,7,7′-tetrahydroxy-5,5′-diisobutyl-3,3′-dimethyl-2,2′-binaphthyl-1,1′,4,4′-tetraone], the “tolerability / toxicity of treated mice” value [1] is reported as “no observed toxicity”, the “in vivo activity compared to 6a” value [1] is reported as “superior” and the “percent of maximum reduction in spleen weight (biological activity)” value [2] is reported as 60-80%. The spleen weight reduction [2] was 30-40%.
With CC1=C(C2=C(C)C(=O)c3c(cc(O)c(O)c3C(=O)NCC(C)c3ccccc3)C2=O)C(=O)c2cc(O)c(O)c(C(=O)NCC(C)c3ccccc3)c2C1=O (stereo not shown) [Compound 8a, 6,6′,7,7′-Tetrahydroxy-3,3′-dimethyl-1,1′,4,4′-tetraoxo-N^5,N^5′-bis(2-phenylpropyl)-1,1′,4,4′-tetrahydro-2,2′-binaphthyl-5,5′-dicarboxamide] the “binding to Bcl-XL by 2D [15N,1H]-HSQC, qualitative” value (“binding to Bcl-XL by 2D” for short) (Bcl-XL) was “strong binding” and the “tolerability / toxicity of treated mice” value [1] was “died”.
For Cc1cc2c(C(C)C)c(O)c(O)c(C=O)c2c(O)c1-c1c(C)cc2c(C(C)C)c(O)c(O)c(C=O)c2c1O [Compound 1, 1,1′,6,6′,7,7′-Hexahydroxy-5,5′-diisopropyl-3,3′-dimethyl-2,2′-binaphthyl-8,8′-dicarboxaldehyde], the “survival of treated mice in first week” value (PPC-1 xenograft tumors; 25 mg/kg, i.p.) was “died”.
For CC1=C(C2=C(C)C(=O)c3c(cc(O)c(O)c3CCc3ccc(C)cc3)C2=O)C(=O)c2cc(O)c(O)c(CCc3ccc(C)cc3)c2C1=O [Compound 6f, 6,6′,7,7′-tetrahydroxy-3,3′-dimethyl-5,5′-bis(4-methylphenethyl)-2,2′-binaphthyl-1,1′,4,4′-tetraone], the “binding to Bcl-XL by 2D” value (Bcl-XL) was “strong binding”, the “tolerability / toxicity of treated mice” value [1] was “no observed toxicity” and the “in vivo activity compared to 6a” value [1] was “superior”. The signs of toxicity ([1]; groups of seven mice, 60 μmol/kg) was “no evident signs of toxicity”, the “LD50 primary CLL sample (second of two, Supplementary 3B)” value (primary CLL cells) was 15 µM and the “tumor response compared with control group in first week” value (PPC-1 xenograft tumors) was “strong tumor regression”. For the same compound, the “degraded after 1 h incubation in rat plasma preparations (second statement)” value (from here on “degraded after 1 h incubation”) [3] was 14%.
CC1=C(C2=C(C)C(=O)c3c(cc(O)c(O)c3Cc3ccc(-c4ccccc4)cc3)C2=O)C(=O)c2cc(O)c(O)c(Cc3ccc(-c4ccccc4)cc3)c2C1=O [Compound 6m, 5,5′-bis(biphenyl-4-ylmethyl)-6,6′,7,7′-tetrahydroxy-3,3′-dimethyl-2,2′-binaphthyl-1,1′,4,4′-tetraone] gave an IC50 (GST–Bcl-XL ΔTM protein) of 160 to 630 nM.
With CC1=C(C2=C(C)C(=O)c3c(cc(O)c(O)c3Cc3ccccc3)C2=O)C(=O)c2cc(O)c(O)c(Cc3ccccc3)c2C1=O [Compound 6i, 5,5′-dibenzyl-6,6′,7,7′-tetrahydroxy-3,3′-dimethyl-2,2′-binaphthyl-1,1′,4,4′-tetraone] the “binding to Bcl-XL by 2D” value (Bcl-XL) was “strong binding”, the “tolerability / toxicity of treated mice” value [1] was “died” and the “tolerability of treated mice” value [1] was “well tolerated”. For the same compound, the “survival of treated mice in first week” value (PPC-1 xenograft tumors; mouse, in vivo) was “died” and the “degraded after 1 h incubation” value [3] was 5%.
With ABT-737 the “cytotoxic activity against BP3 cell lines” value (BP3 cell line) was “no cytotoxic activity”.
With CC1=C(C2=C(C)C(=O)c3c(cc(O)c(O)c3C(C)C)C2=O)C(=O)c2cc(O)c(O)c(C(C)C)c2C1=O [Compound 6a, 6,6′,7,7′-tetrahydroxy-5,5′-diisopropyl-3,3′-dimethyl-2,2′-binaphthyl-1,1′,4,4′-tetraone] the “percent of maximum reduction in spleen weight (biological activity)” value ([1]; 60 μmol/kg ip, maximum spleen shrinkage no more than 50%) was 40%, the “LD50 primary CLL sample (first of two, Figure 2D)” value (primary CLL cells) was over 30 µM and the “LD50 primary CLL sample (second of two, Supplementary 3B)” value (primary CLL cells) was over 30 µM. The “LD50 primary CLL samples (Supplementary Figure 3A)” value (primary CLL cells) was over 30 µM, the “weight loss in first week” value (PPC-1 xenograft tumors; 50 mg/kg i.p. three times in first week) was ~ 5% and the “tumor response compared with control group in first week” value (PPC-1 xenograft tumors) was “strong tumor regression”. For the same compound, the “degraded after 1 h incubation” value [3] was 23% and the “maximum tolerated dose (MTD)” value [4] was “above 240 mg/kg”.
In the case of CC1=C(C2=C(C)C(=O)c3c(cc(O)c(O)c3Cc3ccc(Cl)cc3)C2=O)C(=O)c2cc(O)c(O)c(Cc3ccc(Cl)cc3)c2C1=O [Compound 6l, 5,5′-bis(4-chlorobenzyl)-6,6′,7,7′-tetrahydroxy-3,3′-dimethyl-2,2′-binaphthyl-1,1′,4,4′-tetraone], the “tolerability / toxicity of treated mice” value [1] is reported as “died” and the “tolerability of treated mice” value [1] is reported as “well tolerated”.
